These results are taken from PMC2639705, “Two Chromogranin A-Derived Peptides Induce Calcium Entry in Human Neutrophils by Calmodulin-Regulated Calcium Independent Phospholipase A2” (PLoS ONE, 2009).

“Also recorded” adds a separate entry of the source. Read-outs that look alike come from different tables or passages of the source. Positions of bridges follow the written chain, without caps; N, C: chain ends. No end group written: not given here. rhodamine = not defined here

For experiment [1], the system named is PMNs. Put plainly: Time-lapse intracellular Ca2+ imaging (Fura-2), with SOC/ARC blockers and iPLA2/PLA2 inhibitors. The class given is cell-based, human. Conditions: for Ca2+ influx induced by CaM antagonists: 30 µM W7 or 1 µM CMZ.
Experiment [2] deals with human PMNs. Put plainly: Flow cytometry, Ca2+ influx in Fluo-3-loaded PMNs. Conditions: for Ca2+ influx: human PMNs, Fluo-3, 20 µM peptide (or tryptic digest of 20 µM CAT/CHR), presence of extracellular Ca2+ (1 mM; 1.1 mM CaCl2 at t = 620 s), at least triplicates. In kind it is cell-based. On the technique in general: Flow cytometry measures light scatter and fluorescence of single cells or particles in a stream.

The subject of experiment [3] is pancreatic beta-cells. Conditions: ref [2]; cited from earlier work. An excerpt:
Chromogranin A (CgA) is a well-studied member of the chromogranin/secretogranin family, present in secretory cells of the nervous, endocrine and immune systems. CgA was the first chromogranin to be characterized as an acidic protein co-stored and co-released with the catecholamine hormones from the chromaffin cells of the adrenal medulla. […] Numerous endogenous cl ...

Experiment [4] has as its system PMNs. The experiment is described as follows: Confocal microscopy, uptake of rhodamine-labelled peptides into PMNs. The class given is cell-based, human. Conditions: 20 µM rhodamine-labelled peptide, 2 min, PBS pH 7.4, room temperature, confocal microscopy after paraformaldehyde fixation.
Description: PMNs (1.10^6/mL) were incubated 2 min at room temperature (RT) with rhodamine-labelled peptides (20 µM) in Phosphate Buffered Saline consisting of 10.5 mM KH2PO4, 30 mM Na2HPO4, 0.154 M NaCl, pH 7.4, washed and subsequently centrifuged by cytospins of 1–2.10^5 isolated PMNs onto glass slides (300 rpm, 10 min, RT). Cytospins were fixed with 4% (v/v) paraformaldehyde in PBS at RT for 20 min, then incubated with Draq-5 (dilution1∶500, Biostatus Limited., Leicestershire, UK) for 15 min. Stained cells were monitored with a Zeiss LSM 510 laser scanning microscope (Zeiss, Iena, Germany) equipped with a Planapo oil immersion objective (×63, numerical aperture 1.4).
The test system of experiment [5] is calmodulin (CaM). The experiment is described as follows: Surface Plasmon Resonance, CaM binding to immobilized peptides. The following applies: pH 6.5. On the procedure: Figure 5 Interaction of CHR and CAT with calmodulin (CaM). A) Fluorescence confocal microscopy of PMNs after incubation during 120 s with 20 µM rhodamine-labeled peptides (Rho-CHR or Rho-CAT). Control peptide: 20 µM rhodamine labeled Hippocampal Cholinergic Neurostimulating Peptide (Rho-HCNP). The PMNs nuclei were labeled with Draq-5. B) Alignment of the CHR and CAT sequences with two CaM binding motifs 1-8-14 B and 1-5-10. The alignment has been obtained manually so that hydrophobic residues occupy invariant positions shown with boldface letters. The net positive charge is also indicated. C) (1) Interactions between CaM, CAT and CHR by Surface Plasmon Resonance (SPR) Peptides were immobilized on a CM5 Biacore chip using amine-coupling chemistry. CaM (5 µM) was added at arrow and allowed to stabilize for 10 min. Dissociation by washing was recorded for the following 10 min. All measurements were performed at 20°C. The resulting sensorgrams were analyzed using BIAevaluation Software. (2) Calmodulin-Affinity Chromatography of CHR and CAT. The retained and eluted peptides were immunodetected by dot blot with anti-CHR (monoclonal anti-CgA47–68) and anti-CAT (polyclonal anti-CgA344–364). […]
Experiments were conducted on a Biacore 3000™ (GE Healthcare) and peptides were immobilized on a CM5 Biacore chip using amine-coupling. […] Sensorgrams were analyzed by using BIAevaluation Software.

Experiment [6] concerns iPLA2. Put plainly: iPLA2 activity assay (modified cPLA2 assay kit). In kind it is biochemical, human. The following applies: 20 µM CHR, 20 µM CAT, 1 µM CMZ or 50 µM W7, 30 min at 37°C; absorbance 405 nm per mg protein; two experiments in triplicate.
Description: C) iPLA2 activity assay: Stimulation of iPLA2 activity after treatment by 20 µM CHR or 20 µM CAT for 30 min at 37°C and comparison with the effects of two CaM-binding factors (1 µM CMZ, 50 µM W7) and one iPLA2 inhibitor (25 µM BEL). Activity of iPLA2 is expressed as the absorbance (Abs/mg of protein) at λ405 nm.
PMNs (3.10^8) were collected, sonicated 3 times for 10 s with a 15 s break between cycles, and centrifuged at 15,000× g for 20 min at 4°C. The supernatant was removed and kept on ice. After determination of the protein concentration (Bradford assay), iPLA2 activity measurement was obtained in presence of different peptide concentrations using the cPLA2 assay kit, according to the modified method previously reported (cPLA2 assay kit, Caymen chemical), [36]. Results were from two similar experiments, each performed in triplicates.
The subject of experiment [7] is SOCs. Also noted: method as in PMID 15280576, PMID 15951181, PMID 17003039. The following applies: ref [42]–[44]; cited from earlier work.
The test system of experiment [8] is PMNs. The experiment is described as follows: HPLC and NanoLC-MS/MS proteomic analysis of PMN secretions induced by CHR and CAT. The following applies: trypsin, protein threshold 1 peptide score > 52 or at least 2 peptides with score >20.

For the compound `CCCCC/C=C\C/C=C\C/C=C\C/C=C\CCCC(=O)O` [AA, Arachidonic Acid], the “Ca2+ influx induced by AA” value in experiment [1] (PMNs, Fura-2, 50 µM AA, 2.5 mM CaCl2) is “calcium influx induced by 50 µM AA”.

For the compound “ALQGAKERTHQQ [CgA65–76, the natural peptide CgA65–76 (…)]”, the “Ca2+ influx” value in experiment [2] is “failed to affect the Ca^2+ influx”.

As to `NCCOB(c1ccccc1)c1ccccc1` [2-APB, 2-aminoethyl diphenylborinate], in experiment [1], the “inhibition of AA-induced Ca2+ influx” value is recorded as “insensitive to 2-APB”, the “inhibition of CAT-induced Ca2+ entry” value is “completely blocked the entry of extracellular Ca^2+; also recorded: inhibits completely the calcium entry; also recorded: abolished the transient Ca^2+ influx induced by CHR or CAT similarly to 2-APB”, the “inhibition of CHR-induced Ca2+ entry” value was “completely blocked the entry of extracellular Ca^2+; also recorded: inhibits completely the calcium entry; also recorded: abolished the transient Ca^2+ influx induced by CHR or CAT similarly to 2-APB” and the “suppression of CMZ-induced Ca2+ influx” value was “significantly suppressed”. Moreover, the “suppression of W7-induced Ca2+ influx” value in experiment [1] is “significantly suppressed”.

In the case of “Pancreastatin (AAPGWPEDGAGKMGAEEAKPPEGKGEWAHSRQEEEEMARAPQVLFRG; Pancreastatin; UniProt P05059 266-312, looked up) [CgA-derived peptide (bCGA248–293)]”, the “effect on glucose-evoked insulin secretion” value in experiment [3] was “able to inhibit the glucose-evoked insulin secretion from pancreatic beta-cells”.

In the case of “rhodamine-labeled CAT: CAT conjugated with 5(6)-carboxytetramethyl rhodamine at the N-terminal extremity ({5(6)‑carboxytetramethylrhodamine}-SSMKLSFRARAYGFRGPGPQL; UniProt P10645 370-390, looked up)”, the “detection in PMN cytoplasm (uptake)” value in experiment [4] was “detected in the cytoplasm”.

Consider “CIVEVISDTLSKPSPMPVSKEC (disulfide 1-22 (inferred)) [CgA17–40]”, for which the “Ca2+ influx” value in experiment [2] is recorded as “failed to affect the Ca^2+ influx”.

With `[Cl][Gd]([Cl])[Cl]` [Gd^3+, gadolinium chloride], in experiment [1], the “inhibition of AA-induced Ca2+ influx” value is reported as “inhibited by gadolinium chloride (Gd^3+)”.

“scrambled CAT: scrambled CAT peptide (SLPRRQLPSSAGMRGGKFAYF)”: the “interaction with CaM by SPR” value in experiment [5] is “inactive”.

As for “NSPMNKGDTEVMK [CgA4–16, peptide derived from the N-terminal CgA domain (…)]”, the “Ca2+ influx” value in experiment [2] was “failed to affect the Ca^2+ influx”.

For the compound `NCCCCCCNS(=O)(=O)c1cccc2c(Cl)cccc12` [W7, N-(6-aminohexyl)-5-chloro-l-naphthalenesulfonamide], the “stimulation of iPLA2 enzymatic activity in PMNs” value in experiment [6] is “stimulated”. The “Ca2+ influx induced by CaM antagonists” value in experiment [1] (PMNs, Fura-2, 37°C) is listed as “induced longer lasting rises in influx”.

As for “rhodamine-labeled Hippocampal Cholinergic Neurostimulating Peptide (HCNP): control peptide, rhodamine-labeled Hippocampal Cholinergic Neurostimulating Peptide (HCNP) (rhodamine-PVDLSKWSGPL; reading uncertain; UniProt P30086 2-12, looked up)”, the “detection in PMN cytoplasm (uptake)” value in experiment [4] was “not detected in the cytoplasm”. In experiment [2] (PMNs, data not shown, method and concentration not stated), the “Ca2+ influx induced by labelled control peptide” value is listed as “unable to induce Ca^2+ influx into PMNs”.

`O=C1O/C(=C/Br)CCC1c1cccc2ccccc12` (stereo not shown) [BEL, Bromoenol lactone]: in experiment [1] (PMNs, Fura-2, 20 µM CAT, 2.5 mM CaCl2, 100 µM 2-APB (2 min), 25 µM BEL (30 min) or 10 µM BPB (10 min) before peptide), the “inhibition of CAT-induced Ca2+ entry” value is “abolished the transient Ca^2+ influx”. Further, in experiment [1] (PMNs, Fura-2, 20 µM CHR, 2.5 mM CaCl2, 100 µM 2-APB (2 min), 25 µM BEL (30 min) or 10 µM BPB (10 min) before peptide), the “inhibition of CHR-induced Ca2+ entry” value is on record as “abolished the transient Ca^2+ influx”. In experiment [1] (PMNs, Fura-2, 37°C, 1 µM CMZ, 25 µM BEL (30 min), 10 µM BPB (10 min) or 100 µM 2-APB (2 min) before), the “suppression of CMZ-induced Ca2+ influx” value is “significantly suppressed”. Also, the “suppression of W7-induced Ca2+ influx” value in experiment [1] (PMNs, Fura-2, 37°C, 30 µM W7, 25 µM BEL (30 min), 10 µM BPB (10 min) or 100 µM 2-APB (2 min) before) is reported as “significantly suppressed”.

Turning to `Clc1ccc(C(c2ccc(Cl)cc2)n2cc[n+](CC(OCc3ccc(Cl)cc3Cl)c3ccc(Cl)cc3Cl)c2)cc1` (stereo not shown) [CMZ, calmidazolium], in experiment [6], the “stimulation of iPLA2 enzymatic activity in PMNs” value is reported as “stimulated”. For the same compound, the “Ca2+ influx induced by CaM antagonists” value in experiment [1] (PMNs, Fura-2, 37°C) is listed as “induced longer lasting rises in influx”. Besides, the “direct activation of SOCs” value in experiment [7] is “may directly activate SOCs without the release of intracellular Ca^2+ stores”.

With “Castestatin (SSMKLSFRARAYGFRGPGPQL; Catestatin; UniProt P10645 370-390, looked up)”, the “Protein identified in PMN secretion (Protein name)” value in experiment [8] (sample Castestatin_1, Mascot) is given as “Protein S100-A9 - Homo sapiens (Human); also recorded: Protein S100-A12 - Homo sapiens (Human)”; in experiment [8] (sample Castestatin_6, Mascot), “Actin, cytoplasmic 1 - Homo sapiens (Human)”; in experiment [8] (sample Castestatin_7, Mascot), “Actin, cytoplasmic 1 - Homo sapiens (Human)”; in experiment [8] (sample Castestatin_8, Mascot) it was “Hemoglobin subunit alpha - Homo sapiens (Human)”; in experiment [8] (sample Castestatin_9, Mascot) it was “Hemoglobin subunit beta - Homo sapiens (Human)”; in experiment [8] (sample Castestatin_10, Mascot) it was “High mobility group protein B2 - Homo sapiens (Human); also recorded: Hemoglobin subunit beta - Homo sapiens (Human)”. Besides, the “Protein identified in PMN secretion (Protein name)” value in experiment [8] (sample Castestatin_11, Mascot) was “Heterogeneous nuclear ribonucleoproteins A2/B1 - Homo sapiens (Human); also recorded: Phosphatidylethanolamine-binding protein 1 - Homo sapiens (Human); also recorded: Heterogeneous nuclear ribonucleoprotein A1 - Homo sapiens (Human); also recorded: Filamin-A - Homo sapiens (Human); also recorded: Low affinity immunoglobulin gamma Fc region receptor III-B precursor - Homo sapiens (Human); also recorded: Alpha-1-acid glycoprotein 1 precursor - Homo sapiens (Human); also recorded: Haptoglobin precursor [Contains: Haptoglobin alpha chain; Haptoglobin beta chain] - Homo sapiens (Human); also recorded: SH3 domain-binding glutamic acid-rich-like protein - Homo sapiens (Human)”.
